Measured values as given in patent publication US20220024921A1, “1,3,4-OXADIAZOLONE COMPOUND AND PHARMACEUTICAL” (NIPPON SHINYAKU CO., LTD., priority 2018, published 2022).
Structures can show the parent of a compound that is named as a salt.

How the values were obtained:
[1] = target: T1, PIM1 serine/threonine kinase (Homo sapiens, UniProt P11309); test: PIM1 serine/threonine kinase inhibitory effect; assay type: biochemical; conditions: PIM1 serine/threonine kinase activity; ATP 40 μM; 30° C., 30 minutes
T1 construct: purchased Carna Bioscience, Inc
Method in brief: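 Recombinant PIM1 (0.15 μg/ml final) with 0.5 μM biotinylated substrate and 40 μM ATP in pH 7.0 HEPES/MgCl2 buffer, 30 min at 30° C. Compound range was 0.01–10000 nM final, n=2. HTRF detection with streptavidin-XL665 and anti-phospho antibody-cryptate, 1 h; IC50 from non-linear regression of the 665/620 ratio.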

[2] = target: PIM1 transgenic cells (Ba/F3) (Homo sapiens, UniProt P11309); test: Proliferation inhibitory effect on PIM1 transgenic cells; assay type: cell-based, mouse; conditions: proliferation inhibition, 72 hours, Cell Counting Kit-8, read-out: PIM1 IC50
Source text: Human PIM1, 2, and 3 genes were inserted into the multi-cloning sites of retrovirus expression vectors pMYs-IRES-GFP, respectively, to prepare gene transfer vectors. Then, each gene transfer vector was introduced into packaging cells PLAT-E derived from a human fetal kidney cell line in the logarithmic growth phase, using a transfection reagent (FuGENE6, Promega Corporation). Since the culture supernatant of PLAT-E after gene transfer contained virus particles for gene transfer, the culture supernatant was collected and used as a medium for gene transfer. The medium for gene transfer was added to a plate coated with RetroNectin, and the plate was incubated to attach the virus particles to the plate. Then, a mouse pro-B cell line Ba/F3 in the logarithmic growth phase was seeded on the plate and infected with the virus to prepare PIM1, 2, or 3 transgenic cells that proliferate in a PIM 1, 2, or 3-dependent manner. The expression of PIM1, 2, or 3 protein in each cell was confirmed by Western blotting.
Each test substance was prepared to 10 mM with dimethylsulfoxide (DMSO), and diluted with DMSO so as to have concentrations of 3000, 1000, 300, 100, 30, 10, 3, and 1 μM. Moreover, each dilution was further diluted 10-fold with distilled water to prepare a test substance solution.
PIM1, 2, 3-expressing cells were seeded on a 96-well plate, and each test substance solution prepared the next day was added such that final concentrations were 10000, 3000, 1000, 300, 100, 30, 10, 3, and 1 nM. 72 hours after the addition, 10 μL of Cell Counting Kit-8 (DOJINDO LABORATORIES) was added to each well. After incubation for 1 to 4 hours, absorbance OD450 at 450 nm was measured. In addition, absorption OD650 at 650 nm as a reference wavelength was measured.
OD450-OD650 for each condition was calculated, and then the inhibition rates when OD450-OD650 of negative control (DMSO only) and OD450-OD650 of Blank (without cells) were set to 0% and 100%, respectively, were calculated. Then, non-linear regression analysis was performed for logarithmic dose and inhibition rate using a two-parameter logistic model to estimate IC50 values.

Sequence of PIM1 transgenic cells (Ba/F3) (P11309 whole entry, stated change not applied): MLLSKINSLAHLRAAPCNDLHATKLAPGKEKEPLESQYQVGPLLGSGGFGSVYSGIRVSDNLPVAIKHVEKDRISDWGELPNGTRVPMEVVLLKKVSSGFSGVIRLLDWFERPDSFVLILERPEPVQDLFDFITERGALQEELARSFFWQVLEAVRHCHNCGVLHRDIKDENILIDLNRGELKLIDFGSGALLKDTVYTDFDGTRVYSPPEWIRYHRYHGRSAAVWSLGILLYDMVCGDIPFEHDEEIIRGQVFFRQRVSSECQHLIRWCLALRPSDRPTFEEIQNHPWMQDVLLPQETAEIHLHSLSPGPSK
T1 sequence (P11309 whole entry): as the sequence (P11309 whole entry, stated change not applied) above

IC50 [1] [nM] | GI50 [2] [nM] | SMILES
4.9 | 110 | C[C@H](Nc1cc(-c2n[nH]c(=O)o2)cc(F)c1C(F)(F)F)[C@@H]1CCNC[C@@H]1C [Example 211, 5-[3-fluoro-5-({(1S)-1-[(3R,4R)-3-methylpiperidin-4-yl]ethyl}amino)-4-(trifluoromethyl)phenyl]-1,3,4-oxadiazol-2(3H)-one]
2.6 | 50 | C[C@H](Nc1cc(-c2n[nH]c(=O)o2)cc(F)c1OC(F)(F)F)C1(C)CCNCC1 [Example 207, 5-[3-fluoro-5-{[(1S)-1-(4-methylpiperidin-4-yl)ethyl]amino}-4-(trifluoromethoxy)phenyl]-1,3,4-oxadiazol-2(3H)-one]
8.2 | 360 | O=c1[nH]nc(-c2cc(F)c(C(F)(F)F)c(NCC3(F)CCNCC3)c2)o1 [Example 129, 5-[3-fluoro-5-{[(4-fluoropiperidin-4-yl)methyl]amino}-4-(trifluoromethyl)phenyl]-1,3,4-oxadiazol-2(3H)-one hydrochloride]
8.7 | 180 | CC(Oc1cc(-c2n[nH]c(=O)o2)ccc1Br)C1CCNCC1 (stereo not shown) [Example 236]
3.3 | 170 | C[C@H](Nc1cc(-c2n[nH]c(=O)o2)ccc1Br)C1CCNCC1 [Example 78, 5-(4-bromo-3-{[(1S)-1-(piperidin-4-yl)ethyl]amino}phenyl)-1,3,4-oxadiazol-2(3H)-one dihydrochloride]
4.2 | 330 | NCC[C@H]1CC[C@H](Nc2cc(-c3n[nH]c(=O)o3)ccc2C(F)(F)F)CC1 [Example 44, 5-[3-{[(1r,4r)-4-(2-aminoethyl)cyclohexyl]amino}-4-(trifluoromethyl)phenyl]-1,3,4-oxadiazol-2(3H)-one hydrochloride]
6.1 | 160 | CCN[C@H]1CC[C@H]([C@H](C)Nc2cc(-c3n[nH]c(=O)o3)ccc2C(F)(F)F)CC1 [Example 193, 5-[3-({(1S)-1-[(1r,4S)-4-(ethylamino)cyclohexyl]ethyl}amino)-4-(trifluoromethyl)phenyl]-1,3,4-oxadiazol-2(3H)-one hydrochloride]
20 | 390 | O=c1[nH]nc(-c2ccc(C(F)(F)F)c(N[C@H]3CCC34CCNCC4)c2)o1 [Example 45, 5-[3-{[(1S)-7-azaspiro[3.5]nonan-1-yl]amino}-4-(trifluoromethyl)phenyl]-1,3,4-oxadiazol-2(3H)-one hydrochloride]
3.5 | 2100 | C[C@H](Nc1cc(-c2n[nH]c(=O)o2)cc(C#N)c1Cl)C1CCNCC1 [Example 110, 2-chloro-5-(5-oxo-4,5-dihydro-1,3,4-oxadiazol-2-yl)-3-{[(1S)-1-(piperidin-4-yl)ethyl]amino}benzonitrile hydrochloride]
6.6 | 210 | CC1CN(C(C)C2CCC(N)CC2)c2cc(-c3n[nH]c(=O)o3)cc(F)c2O1 [Example 252, 5-[(2S)-4-{(1S)-1-[(1r,4S)-4-aminocyclohexyl]ethyl}-8-fluoro-2-methyl-3,4-dihydro-2H-1,4-benzoxazin-6-yl]-1,3,4-oxadiazol-2(3H)-one hydrochloride]
8.1 | 140 | CCN[C@H]1C[C@@H]([C@H](C)Nc2cc(-c3n[nH]c(=O)o3)ccc2C(F)(F)F)C1 [Example 195, 5-[3-({(1S)-1-[(1s,3R)-3-(ethylamino)cyclobutyl]ethyl}amino)-4-(trifluoromethyl)phenyl]-1,3,4-oxadiazol-2(3H)-one hydrochloride]
6 | 370 | CC1(CNc2cc(-c3n[nH]c(=O)o3)ccc2C(F)(F)F)CCNCC1 [Example 57, 5-[3-{[(4-methylpiperidin-4-yl)methyl]amino}-4-(trifluoromethyl)phenyl]-1,3,4-oxadiazol-2(3H)-one hydrochloride]
3.3 | 22 | C[C@H](Nc1cc(-c2n[nH]c(=O)o2)cc(F)c1C1CC1)[C@H]1CC[C@H](N)CC1 [Example 230, 5-[3-({(1S)-1-[(1r,4S)-4-aminocyclohexyl]ethyl}amino)-4-cyclopropyl-5-fluorophenyl]-1,3,4-oxadiazol-2(3H)-one]
10 | 110 | C[C@H](Nc1cc(-c2n[nH]c(=O)o2)ccc1Cl)[C@H]1C[C@@H](N)C1(C)C [Example 168, 5-[3-({(1S)-1-[(1S,3R)-3-amino-2,2-dimethylcyclobutyl]ethyl}amino)-4-chlorophenyl]-1,3,4-oxadiazol-2(3H)-one]
25 | 6500 | C[C@H](Nc1cc(-c2n[nH]c(=O)o2)cc(S(F)(F)(F)(F)F)c1)C1CCNCC1 [Example 107, 5-[3-(pentafluoro-λ^6-sulfanyl)-5-{[(1S)-1-(piperidin-4-yl)ethyl]amino}phenyl]-1,3,4-oxadiazol-2(3H)-one hydrochloride]
11 | 140 | N[C@H]1CC[C@H](CN2CCCc3ccc(-c4n[nH]c(=O)o4)cc32)CC1 [Example 244, 5-(1-{[(1r,4r)-4-aminocyclohexyl]methyl}-1,2,3,4-tetrahydroquinolin-7-yl)-1,3,4-oxadiazol-2(3H)-one]
12 | 100 | CC(Nc1cc(-c2n[nH]c(=O)o2)ccc1C(F)(F)F)C1(C)CCNCC1 (stereo not shown) [Example 115, 5-[3-{[1-(4-methylpiperidin-4-yl)ethyl]amino}-4-(trifluoromethyl)phenyl]-1,3,4-oxadiazol-2(3H)-one]
1.5 | 210 | C[C@H](Nc1cc(-c2n[nH]c(=O)o2)cc([N+](=O)[O-])c1Cl)C1CCNCC1 [Example 91, 5-(4-chloro-3-nitro-5-{[(1S)-1-(piperidin-4-yl)ethyl]amino}phenyl)-1,3,4-oxadiazol-2(3H)-one hydrochloride]
3.1 | 94 | COc1c(F)cc(-c2n[nH]c(=O)o2)cc1N[C@@H](C)[C@H]1CC[C@H](N)CC1 [Example 167, 5-[3-({(1S)-1-[(1r,4S)-4-aminocyclohexyl]ethyl}amino)-5-fluoro-4-methoxyphenyl]-1,3,4-oxadiazol-2(3H)-one hydrochloride]
27 | 2200 | NCCc1ccc(-c2cc(-c3n[nH]c(=O)o3)ccc2C(F)(F)F)cc1 [Example 22, 5-[4′-(2-aminoethyl)-6-(trifluoromethyl)[1,1′-biphenyl]-3-yl]-1,3,4-oxadiazol-2(3H)-one hydrochloride]
17 | 320 | CC(C)Oc1c(F)cc(-c2n[nH]c(=O)o2)cc1N[C@@H](C)[C@H]1CC[C@H](N)CC1 [Example 175, 5-{3-({(1S)-1-[(1r,4S)-4-aminocyclohexyl]ethyl}amino)-5-fluoro-4-[(propan-2-yl)oxy]phenyl}-1,3,4-oxadiazol-2(3H)-one dihydrochloride]
5.3 | 90 | CC(Oc1cc(-c2n[nH]c(=O)o2)ccc1Br)[C@H]1CC[C@H](N)CC1 (stereo partly shown) [Example 237, 5-(3-{1-[(1r,4r)-4-aminocyclohexyl]ethoxy}-4-bromophenyl)-1,3,4-oxadiazol-2(3H)-one]
2 | 28 | C=C(C)c1c(F)cc(-c2n[nH]c(=O)o2)cc1N[C@@H](C)[C@H]1CC[C@H](N)CC1 [Example 232, 5-[3-({(1S)-1-[(1r,4S)-4-aminocyclohexyl]ethyl}amino)-5-fluoro-4-(prop-1-en-2-yl)phenyl]-1,3,4-oxadiazol-2(3H)-one hydrochloride]
